± gives the standard deviation of the averaged measurements.

Compound in assay [1]: C[C@H](CN(C)C)Oc1nc(Nc2cc3cccc(Cl)c3cn2)cnc1C#N
The assay is described as follows: surviving fraction relative to DMSO-only wells; higher = less growth inhibition. The conditions noted are these: exposure time: 5 days. In outline: (§1)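 At 250–500 cells per well in 384-well plates, log-phase tumour cell lines were seeded and, 24 hours on, exposed continuously for five days to inhibitors at 0.5, 1, 5, 10, 50, 100, 500 and 1000 nM. Viability readout was CellTiter-Glo luminescence, reported as surviving fraction normalised to the median of DMSO-only wells.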

Compound in assay [2]: CCc1cc(Nc2nccc(-c3c(-c4ccc(OC)c(C(=O)Nc5c(F)cccc5F)c4)nc4ccccn34)n2)c(OC)cc1N1CCC(N2CCN(S(C)(=O)=O)CC2)CC1
The description is as above. The conditions noted are these: exposure time: 5 days. The gist of the method: as §1

As for HCC38 BREAST, the surviving fraction came out at 1.25 ± 0.22 in assay [1] (0.5 nM); 1.32 ± 0.18 in assay [1] (1 nM); 1.36 ± 0.28 in assay [1] (5 nM); 1.3 ± 0.14 in assay [1] (10 nM); 0.989 ± 0.06 in assay [1] (50 nM); 0.821 ± 0.23 in assay [1] (100 nM). Besides, the surviving fraction in assay [1] (500 nM) came out at 0.125 ± 0.028; in assay [1] (1000 nM), 0.0697 ± 0.013; in assay [2] (0.5 nM), 1.09 ± 0.18; in assay [2] (1 nM), 1.19 ± 0.28; in assay [2] (5 nM) it was 1.1 ± 0.23; in assay [2] (10 nM), 1.02 ± 0.23. Also, the surviving fraction was 0.855 ± 0.2 in assay [2] (50 nM), 1.07 ± 0.17 in assay [2] (100 nM), 0.923 ± 0.12 in assay [2] (500 nM) and 0.881 ± 0.13 in assay [2] (1000 nM).
In the case of HMLE3 BREAST, the surviving fraction in assay [1] (0.5 nM) came out at 1 ± 0.081; in assay [1] (1 nM), 0.949 ± 0.035; in assay [1] (5 nM) it was 1.01 ± 0.04; in assay [1] (10 nM), 0.998 ± 0.056; in assay [1] (50 nM), 1.07 ± 0.069; in assay [1] (100 nM), 1.07 ± 0.1. Besides, the surviving fraction turned out to be 0.93 ± 0.076 in assay [1] (500 nM); 0.735 ± 0.025 in assay [1] (1000 nM); 0.947 ± 0.037 in assay [2] (0.5 nM); 0.931 ± 0.073 in assay [2] (1 nM); 1 ± 0.013 in assay [2] (5 nM); 1.09 ± 0.038 in assay [2] (10 nM). Besides, the surviving fraction in assay [2] (50 nM) is 0.967 ± 0.066; in assay [2] (100 nM) it was 0.979 ± 0.081; in assay [2] (500 nM) it was 0.908 ± 0.049; in assay [2] (1000 nM) it was 0.834 ± 0.062.
Turning to G292 BONE, the surviving fraction in assay [1] (0.5 nM) was 1.06 ± 0.053; in assay [1] (1 nM), 1.02 ± 0.012; in assay [1] (5 nM) it was 1.05 ± 0.021; in assay [1] (10 nM), 1.05 ± 0.075; in assay [1] (50 nM), 1.107 ± 0.0061; in assay [1] (100 nM), 1.08 ± 0.061. For the same test system, the surviving fraction in assay [1] (500 nM) amounted to 0.648 ± 0.046; in assay [1] (1000 nM), 0.43 ± 0.028; in assay [2] (0.5 nM), 1.03 ± 0.072; in assay [2] (1 nM), 0.969 ± 0.032; in assay [2] (5 nM), 1 ± 0.061; in assay [2] (10 nM) it was 1 ± 0.023. Further, the surviving fraction in assay [2] (50 nM) is 1.03 ± 0.041; in assay [2] (100 nM), 0.994 ± 0.013; in assay [2] (500 nM), 1.018 ± 0.0097; in assay [2] (1000 nM) it was 0.975 ± 0.035.
Take HS578T BREAST: the surviving fraction in assay [1] (0.5 nM) is 0.988 ± 0.17; in assay [1] (1 nM), 1.02 ± 0.11; in assay [1] (5 nM), 0.972 ± 0.14; in assay [1] (10 nM), 1.04 ± 0.11; in assay [1] (50 nM) it was 1.05 ± 0.041; in assay [1] (100 nM), 0.796 ± 0.14. Further, the surviving fraction in assay [1] (500 nM) amounted to 0.216 ± 0.028; in assay [1] (1000 nM) it was 0.191 ± 0.02; in assay [2] (0.5 nM), 0.891 ± 0.1; in assay [2] (1 nM) it was 0.952 ± 0.025; in assay [2] (5 nM), 0.965 ± 0.12; in assay [2] (10 nM), 0.902 ± 0.042. The surviving fraction was found to be 0.803 ± 0.064 in assay [2] (50 nM), 0.88 ± 0.14 in assay [2] (100 nM), 0.931 ± 0.022 in assay [2] (500 nM) and 0.776 ± 0.078 in assay [2] (1000 nM).
HS57T BREAST: the surviving fraction in assay [1] (0.5 nM) worked out at 0.943 ± 0.054; in assay [1] (1 nM), 0.933 ± 0.048; in assay [1] (5 nM), 1.04 ± 0.039; in assay [1] (10 nM), 1.06 ± 0.041; in assay [1] (50 nM), 1.03 ± 0.025; in assay [1] (100 nM) it was 0.929 ± 0.057. The surviving fraction in assay [1] (500 nM) was 0.119 ± 0.0095; in assay [1] (1000 nM), 0.0913 ± 0.011; in assay [2] (0.5 nM), 0.949 ± 0.082; in assay [2] (1 nM), 1.01 ± 0.063; in assay [2] (5 nM), 1.05 ± 0.021; in assay [2] (10 nM), 1.05 ± 0.018. Further, the surviving fraction in assay [2] (50 nM) is 1.02 ± 0.052; in assay [2] (100 nM) it was 1.06 ± 0.085; in assay [2] (500 nM) it was 0.992 ± 0.036; in assay [2] (1000 nM), 0.945 ± 0.024.
As for HMT3552 BREAST, the surviving fraction in assay [1] (0.5 nM) was 0.984 ± 0.029; in assay [1] (1 nM), 1.04 ± 0.043; in assay [1] (5 nM) it was 1.08 ± 0.093; in assay [1] (10 nM), 1.04 ± 0.036; in assay [1] (50 nM), 1.22 ± 0.018; in assay [1] (100 nM), 1.19 ± 0.064. Also, the surviving fraction worked out at 0.121 ± 0.016 in assay [1] (500 nM); 0.103 ± 0.01 in assay [1] (1000 nM); 1.14 in assay [2] (0.5 nM); 1.08 in assay [2] (1 nM); 1.08 in assay [2] (5 nM); 1.1 in assay [2] (10 nM). Also, the surviving fraction in assay [2] (50 nM) turned out to be 1.17; in assay [2] (100 nM), 1.18; in assay [2] (500 nM) it was 1.21; in assay [2] (1000 nM), 1.3.
As for HCC70 BREAST, the surviving fraction in assay [1] (0.5 nM) worked out at 1.07 ± 0.06; in assay [1] (1 nM), 1.11 ± 0.14; in assay [1] (5 nM), 1.01 ± 0.038; in assay [1] (10 nM), 1.09 ± 0.034; in assay [1] (50 nM), 1.1 ± 0.045; in assay [1] (100 nM) it was 1.14 ± 0.025. Besides, the surviving fraction is 0.639 ± 0.086 in assay [1] (500 nM); 0.191 ± 0.021 in assay [1] (1000 nM); 1.08 ± 0.059 in assay [2] (0.5 nM); 0.975 ± 0.12 in assay [2] (1 nM); 1.07 ± 0.039 in assay [2] (5 nM); 1.09 ± 0.1 in assay [2] (10 nM). Besides, the surviving fraction came to 1.08 ± 0.051 in assay [2] (50 nM), 1.12 ± 0.096 in assay [2] (100 nM), 1.03 ± 0.13 in assay [2] (500 nM) and 0.994 ± 0.052 in assay [2] (1000 nM).
